In patent publication US4201784A, “Substituted 2-[2'-(5"-nitrofuryl-2")vinyl-and 4'-(5"-nitrofuryl-2"-1,3-butadieryl]quinoline-4-carboxylic acid amides and salts thereof” (Institut Organicheskogo Sinteza Akademii Nauk Latviiskoi SSR, priority 1977, dated 1980):
Read-outs that look alike come from different tables or passages of the source.

Tests used:
[1] = system: lymphatic leukemia L 5178; assay: Antitumor activity, life prolongation, lymphatic leukemia L 5178; format: in vivo, mice
Protocol: Apart from the tests on Ehrlich ascitic tumor, giniquine was studied on twelve more inoculated tumors. Seven tumors (melanoma B16, sarcoma AK, large intestine carcinoma acatol-1, sarcoma 180, adenocarcinoma 755, Lewis lung carcinoma and sarcoma 37) were inoculated subcutaneously with 50 mg of tumoral cells per mouse. Four tumors (lymphatic leukemies L 5178, L 5178Y, L 1210 and P-388) were inoculated intraperitoneally with 10^6 cells per mouse. One tumor (La, hemocytoblastosis) was inoculated intraperitoneally by injecting 50 mg of cell suspension of spleen and liver of mice suffering La hemocytoblastosis, per mouse. Giniquine was injected intraperitoneally five times for seven days: 1,2,3,4,7 days or 3,4,5,6,7 days after the implantation of tumor. The rate of deceleration of the tumor growth was established 14 days after the ultimate injection of giniquine; life of test animals was recorded for 60 days.

[2] = Biological availability, blood and liver of rats; format: in vivo; details: intraperitoneal 100 mg/kg
Protocol: The biological availability of giniquine was studied on common white male rats with a mass of 150-200 g and common white male mice with a mass of 25-30 g. The test began seven days after Ehrlich ascitic carcinoma was inoculated to the animals.
Giniquine was injected intraperitoneally in 100 mg/kg doses, using distilled water as a solvent. The animals were slaughtered at preset time intervals (5,15,30 and 60 minutes) and a biological material (blood and liver for rats and ascites for mice) was taken for analysis. To separate ascitic fluid from the tumor cells, ascites was centrifuged at 2000 r.p.m. for 10 minutes. The precipitate was washed with a mixture of physiological solution and heparin and was again centrifuged under the same conditions, 20% homogenates in distilled water were prepared from ascitic cells.
Giniquine was extracted from the biological material with chloroform.
The extraction procedure comprised the following stages: 0.1 ml of ethyl alcohol were added to 1 ml of tested sample and the solution was thoroughly mixed with 0.5 ml of a saturated potassium carbonate solution, then 4 ml of chloroform was added. Closed test tubes were vigorously shaken on a rocker for one hour. After the shaking, the samples were centrifuged at 5000 r.p.m. for ten minutes. The chloroform layer was used for analysis. Daylight was avoided.
Concentration of the preparation in biological samples was determined by spectrophotometry at 400 nm using molar absorption factor (ε0.10^-3 =36.04).
The results were expressed in μg/ml of sample. Minimum sensitivity of the method was 1.1 μg/ml.

Brain = assay: In vivo biosynthesis of DNA, RNA and protein in brain; set-up: species or system mice; details: 24 hours, intraperitoneal 28 mg/kg
Protocol: (§1) The influence of giniquine on biosynthetic processes in the in vivo tests was studied on common white mice of a mass of 25-35 g with Ehrlich ascitic tumor.
(§2) The mice were divided into two groups. The animals in the first group were given a single injection of the preparation in differing doses, and the animals in the second group were treated with distilled water. Three series of experiments were conducted. In the first series of tests (16 mice) the preparation was injected in a dose of 100 mg/kg ([…] dose), and the animals were decapitated one hour after the injection; in the second test series (16 mice) the animals were slaughtered 3 hours after the injection with other conditions being the same. In the third test series (35 mice) the influence of giniquine on plastic metabolism in tumor cells and normal tissues was studied 24 hours after the injection of a 0.33% solution of the preparation in a dose of 28 mg/kg (therapeutical dose).
(§3) Labeled precursors of nucleic acids and protein were injected intraperitoneally one hour before the slaughter of the animals (50 μc/100 g). Ascitic fluid, as well as liver and spleen, mucous membrane of small intestine, brain, kidneys and lungs were taken for analysis. 10% suspension was prepared from tumor cells, and 10% homogenates were prepared from tissues in a physiological solution.
(§4) Tumor cells and tissue homogenates for precipitation of nucleic acids were treated with 57% perchloric acid (10:1). […] Radioactivity of DNA and RNA fractions was measured by means of a liquid scintillation counter. The quantity of DNA and RNA was determined by spectrophotometry: the quantity of DNA was determined with diphenylamine, and RNA- with orcin.
(§5) To prepare protein hydrolysate, the suspension of tumoral cells and homogenates of normal tissues were treated with cool 10% trichloracetic acid (1:4), with subsequent centrifuging at 2000 g for ten minutes. […] The radioactivity was measured by means of a liquid scintillation counter. Protein was quantitatively determined by spectrophotometry using a microbiuret reaction.

[3] = system: Mucous membrane of small intestine; assay: In vivo biosynthesis of DNA, RNA and protein in mucous membrane of small intestine; set-up: species or system mice; details: 24 hours, intraperitoneal 28 mg/kg
Protocol: as §1, §2, §3, §4, §5

Lungs = assay: In vivo biosynthesis of DNA, RNA and protein in lungs; set-up: species or system mice; details: 24 hours, intraperitoneal 28 mg/kg
Protocol: as §1, §2, §3, §4, §5

Q: With CCN(CC)CCCC(C)NC(=O)c1cc(C=Cc2ccc([N+](=O)[O-])o2)nc2ccccc12 (stereo not drawn) [giniquine, 2-[2'-(5"-nitrofuryl-2")vinyl]quinoline-4-carboxylic acid (α-methyl-δ-diethylaminobutyl)amide triphosphate] as the molecule, how does the Max. life prolong. ([1]; common female mice, intraperitoneal, days 1,2,3,4,7, optimum daily dose 10.0 mg/kg) read?
A: 30%

Q: And the “antiblastic activity / sensitivity (in words)” value ([1]; lymphatic leukemia L 5178)?
A: slight antitumor effect

Q: And the “time of detection in blood” value ([2]; blood)?
A: as early as in five minutes

Q: What about the Cmax at 0.5 h ([2]; rat, blood, ip, 30 minutes, read-out: maximum level in blood) of the same molecule?
A: 23000 ng/mL

Q: And the Tmax ([2]; rat, ip, blood, read-out: time of maximum level in blood (converted))?
A: 30 min

Q: And the Cmax ([2]; rat, ip, liver, read-out: maximum concentration in liver)?
A: 28000 ng/mL

Q: What about the Tmax ([2]; rat, ip, liver, read-out: time of maximum concentration in liver (converted)) of the same molecule?
A: 20 min

Q: And the concentration at 1 h ([2]; rat, serum, ip, 60 minutes, read-out: content in blood serum)?
A: 3000 ng/mL

Q: What about the “Incorporation of specific precursors, DNA” value (shortened to “Incorporation … DNA”) (Brain) of the same molecule?
A: 125.0 % of control

Q: And the “Incorporation of specific precursors, Protein” value (“Incorporation … Protein” for short) (Brain)?
A: 105.0 % of control

Q: What about the “Incorporation of specific precursors, RNA” value (“Incorporation … RNA” below) (Brain) of the same molecule?
A: 124.0 % of control

Q: What about the “Incorporation … DNA” value [3] of the same molecule?
A: 386.0 % of control

Q: And the “Incorporation … Protein” value [3]?
A: 122.0 % of control

Q: And the “Incorporation … RNA” value [3]?
A: 158.0 % of control

Q: And the “Incorporation … DNA” value (Lungs)?
A: 255.0 % of control

Q: And the “Incorporation … Protein” value (Lungs)?
A: 102.0 % of control

Q: And the “Incorporation … RNA” value (Lungs)?
A: 124.0 % of control
